From paper PMC7037732, “Synthesis of Combretastatin A-4 and 3′-Aminocombretastatin A-4 derivatives with Aminoacid Containing Pendants and Study of their Interaction with Tubulin and as Downregulators of the VEGF, hTERT and c-Myc Gene Expression” (Molecules, 2020)

What was measured:
[1] = system: c-Myc gene; assay: c-Myc gene expression by RT-qPCR in HT-29 cells; format: cell-based, human; conditions: Homo sapiens, HT-29, 48 h, control 100; for mrna remaining at 0.015 µM: 15 nM
Experimental: (§1) The effect on the expression of VEGF, hTERT and c-Myc genes has been studied for CA-4 and its derivatives that show selectivity indexes higher than 0.9 on the HT-29 cell line. The studied derivatives, together with the concentrations to which they have been tested, are CA-4 (15 μM); 4.1 (Gly, 5 μM); 4.5 (L-Pro, 25 μM); 4.9 (L-Met, 25 μM); 6.2 (D-Leu, 25 μM); 6.3 (D-Phe, 25 μM); 6.4 (D-Pro, 25 μM) and 6.5 (D-Ser, 10 μM). The expression of the genes was determined by RT-qPCR methodology, as described in the Materials and Methods section.
(§2) As regards AmCA-4 derivatives, the effect on the expression of the VEGF, hTERT and c-Myc genes has been studied on those that show IC50 in the low nanomolar range on the HT-29 cell line and/or on compounds whose selectivity indexes with respect to this cell line are higher than 1. The studied compounds, together with the concentrations to which they have been tested, are: CA-4 (15 μM), AmCA-4 (15 nM), 7.1 (7 nM), 7.2 (1.5 nM), 7.3 (4 nM), 7.4 (15 nM), 7.5 (2 nM), 7.7 (7 nM), 7.8 (15 nM), 7.9 (30 nM), 8.1 (7 nM), 8.2 (3 nM), 8.3 (10 nM), 8.4 (1.5 nM), 8.5 (4 nM), 8.7 (7 nM), 8.8 (3 nM) and 8.9 (4 nM).
(§3) HT-29 cells at 70–80% confluence were collected, and 1.5 × 10^5 cells were placed in a six-well plate in 1.5 mL of the medium. After 24 h, cells were incubated with the corresponding compounds for 48 h. Cells were collected, and the total cellular RNA from the HT-29 cells was isolated using an Ambion RNA Extraction Kit, according to the manufacturer’s instructions. The cDNA was synthesized by MMLV-RT with […] of extracted RNA and oligo(dT)15, according to the manufacturer’s instructions. Genes were amplified by a thermal cycler and StepOnePlus™ TaqMan® probes. TaqMan® Gene Expression Master Mix Fast, containing the appropriate buffer for the amplification conditions, dNTPs, thermostable DNA polymerase enzyme and a passive reference probe, was used. To amplify each of the genes, the predesigned primers sold by Life Technologies TaqMan® Gene Expression Assays Hs99999903-m1 (β-actin), Hs00900055-m1 (VEGF), Hs00972646-m1 (hTERT) and Hs00153408-m1 (c-Myc) were used.

[2] = system: HEK-293 (human embryonic kidney cells); assay: Inhibition of cell proliferation (MTT), nontumor HEK-293; format: cell-based; conditions: Table 2, 48 h of treatment (footnote), average ±SD of three experiments
Source text: (§4) The ability of the synthetic compounds to inhibit cell proliferation was established by means of their IC50 values towards the tumor cell lines HT-29 (human colon adenocarcinoma), MCF-7 (breast adenocarcinoma) and A-549 (human pulmonary adenocarcinoma), as well as towards the nontumor cell line HEK-293 (human embryonic kidney cells). Results for compounds derived from CA-4 are presented in Table 1, along with the calculated selectivity indexes SIA (for HT-29 cell line), SIB (for MCF-7 cell line) and SIc (for A-549 cell line), obtained by dividing the IC50 values of the nontumor cell line (HEK-293) by those of the corresponding tumor cell line. The higher the SI index, the higher the therapeutic safety margin.
(§5) Cell culture media were purchased from Gibco (Grand Island, NY, USA). Fetal bovine serum (FBS) was a product of Harlan-Seralab (Belton, U.K.). Supplements and other chemicals not listed in this section were obtained from Sigma Chemical Co. (St. Louis, MO, USA). Plastics for cell culture were supplied by Thermo Fischer Scientific Inc., Madrid, Spain. All tested compounds were dissolved in DMSO at a concentration of 10 μg/mL and stored at −20 °C until use. HT-29, MCF-7, A-549 and HEK-293 cell lines were maintained in a Dulbecco’s modified Eagle’s medium (DMEM) containing glucose (1 g/L), glutamine (2 mM), penicillin (50 IU/mL), streptomycin (50 μg/mL) and amphotericin B (1.25 μg/mL), supplemented with 10% FBS. Cells from human non-small lung carcinoma (clone A549; ATCC n°: CCL2, MD, USA) were routinely grown at 37 °C in a humidified atmosphere of 5% CO2. Cells were maintained in a standard medium composed of RPMI 1640 (Lonza, Group Ltd., Basel, Switzerland), supplemented with 10% fetal bovine serum (FBS), 2 mM L-glutamine and 1% penicillin and streptomycin (Invitrogen). Cells were free from mycoplasma as determined by MycoAlert tests (Lonza, Group Ltd., Basel, Switzerland).
(§6) A total of 5 × 10^3 HT-29, MCF-7 or HEK-293 cells in a total volume of 100 μL of their respective growth media were incubated with serial dilutions of the tested compounds. The 3-(4,5-dimethylthiazol-2-yl)-2,5-diphenyltetrazolium bromide (MTT; Sigma Chemical Co.) dye reduction assay in a 96-well microplate was used, as previously described. […] The resulting formazan was dissolved in 150 μL of 0.04 N HCl/2-propanol and read at 550 nm. All determinations were carried out in triplicate.

[3] = system: A-549 (human pulmonary adenocarcinoma); assay: Inhibition of cell proliferation (MTT), A-549; format: cell-based; conditions: Homo sapiens, A549, 48 h, Table 2; 48 h of treatment (footnote); average ±SD of three experiments
Source text: as §4
as §5, with “Switzerland). […]” for “Switzerland).”

[4] = system: purified tubulin; assay: Critical concentration (CrC) for the assembly of purified tubulin in GAB; format: biochemical; conditions: compound 27.5 μM, tubulin 25 μM, glycerol (GAB) and GTP assembly buffer; control 7.9 ± 1.2
Experimental: The effect on the self-assembly of tubulin was determined by measuring the critical concentration (CrC).

[5] = system: A-549 cells; assay: Cell cycle distribution by flow cytometry; format: cell-based, human; conditions: A-549, 24 h, 0.5 µM
Experimental: The effects of some CA-4 derivatives on the cell cycle were evaluated in A-549 cells.
The effects of some AmCA-4 derivatives on the cell cycle were also evaluated in A-549 cells.
The supernatant and trypsinated cells were harvested and then centrifuged (1200 rpm, 5 min, 4 °C). The cell pellet was resuspended in 1 mL of cold 70% ethanol for 30 min at −20 °C. Cells were centrifuged (2000 rpm, 5 min, 4 °C) to remove ethanol, and then the cell pellet was resuspended in the staining mix containing 50 µg/mL propidium iodide (Molecular Probes, France) and 100 µg/mL RNAse A (Sigma, France) in PBS for 20 min at room temperature in darkness. Samples were analyzed on a Becton Dickinson FACScan flow cytometer using the CellQuest software, which was also used to determine the percentage of cells in the G2/M phases of the cell cycle. PI was excited at 488 nm, and fluorescence analyzed at 620 nm on channel Fl-2.

[6] = system: hTERT gene; assay: hTERT gene expression by RT-qPCR in HT-29 cells; format: cell-based, human; conditions: Homo sapiens, HT-29, 48 h, control 100; for mrna remaining at 0.015 µM: 15 nM
Experimental: as §1, §2, §3

[7] = system: VEGF gene; assay: VEGF gene expression by RT-qPCR in HT-29 cells; format: cell-based, human; conditions: Homo sapiens, HT-29, 48 h, control 100; for mrna remaining at 0.015 µM: 15 nM
Experimental: as §1, §2, §3

[8] = system: MCF-7 (breast adenocarcinoma); assay: Inhibition of cell proliferation (MTT), MCF-7; format: cell-based, human; conditions: Table 2, 48 h of treatment (footnote), average ±SD of three experiments
Source text: as §4, §5, §6

[9] = system: HT-29 (human colon adenocarcinoma); assay: Inhibition of cell proliferation (MTT), HT-29; format: cell-based; conditions: Homo sapiens, HT-29, 48 h, Table 2; 48 h of treatment (footnote); average ±SD of three experiments
Source text: as §4, §5, §6

[10] = system: tubulin; assay: In vitro tubulin polymerization by turbidimetry (It50); format: biochemical; conditions: turbidimetry at 350 nm, 37 °C; for It50 (time required to reach 50% of the polymerization): control 16.6 ± 1.0
Experimental: Figure 3 also includes polymerization curves in the presence of CA-4, AmCA-4 and paclitaxel. This test was also performed using paclitaxel, a microtubule stabilizing agent, as a control for the complete formation of microtubules (see Figure 3).

Row | Structure (SMILES) | IC50 ([2]; Homo sapiens, HEK293, 48 h) [nM] | IC50 [3] [nM] | CrC (critical concentration) [4] [µM] | IC50 ([8]; Homo sapiens, MCF7, 48 h) [nM] | IC50 [9] [nM] | It50 (time required to reach 50% of the polymerization) [10] [min] | other results
1 | COc1ccc(/C=C\c2cc(OC)c(OC)c(OC)c2)cc1NC(=O)[C@@H](N)Cc1ccc(O)cc1 [Compound 8.8] | < 5 | 206 ± 20 | 7.7 ± 0.8 | < 5 | – | – | mrna remaining at 0.003 µM ([1]; 3 nM): 42%; IC50 [2]: 2.7 ± 1.4 nM; G0/G1 [5]: 30 ± 2%; G2/M [5]: 52 ± 3%; S [5]: 18 ± 1%; mrna remaining at 0.003 µM ([6]; 3 nM): 46%; mrna remaining at 0.003 µM ([7]; 3 nM): 72%; IC50 [8]: 4.9 ± 0.2 nM
2 | COc1ccc(/C=C\c2cc(OC)c(OC)c(OC)c2)cc1NC(=O)[C@H](CC(C)C)NC(=O)OCC1c2ccccc2-c2ccccc21 [Compound 7.4] | 14 ± 3 | 490 ± 13 | 9.9 ± 0.8 | 9 ± 2 | 23 ± 10 | – | mrna remaining at 0.015 µM [1]: 94%; mrna remaining at 0.015 µM [6]: 96%; mrna remaining at 0.015 µM [7]: 58%
3 | COc1ccc(/C=C\c2cc(OC)c(OC)c(OC)c2)cc1NC(=O)[C@@H](NC(=O)OCC1c2ccccc2-c2ccccc21)C(C)O (stereo partly drawn) [Compound 7.7] | 13 ± 2 | 422 ± 8 | 12.0 ± 0.3 | 25 ± 12 | 9 ± 3 | 19.2 ± 0.3 | mrna remaining at 0.007 µM ([1]; 7 nM): 56%; mrna remaining at 0.007 µM ([6]; 7 nM): < 70%; mrna remaining at 0.007 µM ([7]; 7 nM): 37%
4 | COc1ccc(/C=C\c2cc(OC)c(OC)c(OC)c2)cc1NC(=O)[C@@H](NC(=O)OCC1c2ccccc2-c2ccccc21)C(C)C [Compound 7.3] | 60 ± 20 | 870 ± 60 | 6.9 ± 0.3 | 100 ± 50 | 130 ± 40 | – | mrna remaining at 0.004 µM ([1]; 4 nM): 63%; mrna remaining at 0.004 µM ([6]; 4 nM): > 100%; mrna remaining at 0.004 µM ([7]; 4 nM): 23%
5 | COc1ccc(/C=C\c2cc(OC)c(OC)c(OC)c2)cc1NC(=O)[C@H](Cc1ccc(O)cc1)NC(=O)OCC1c2ccccc2-c2ccccc21 [Compound 7.8] | 16 ± 2 | 8900 ± 1200 | 10.1 ± 1.1 | 12 ± 2 | 18 ± 5 | – | mrna remaining at 0.015 µM [1]: > 100%; mrna remaining at 0.015 µM [6]: 76%; mrna remaining at 0.015 µM [7]: 51%
6 | CC(=O)O[C@H]1C(=O)[C@@]2(C)[C@H]([C@H](OC(=O)c3ccccc3)[C@]3(O)C[C@H](OC(=O)[C@H](O)[C@@H](NC(=O)c4ccccc4)c4ccccc4)C(C)=C1C3(C)C)[C@]1(OC(C)=O)CO[C@@H]1C[C@@H]2O [Paclitaxel, paclitaxel, reference compound] | – | – | – | – | – | 3.2 ± 0.4 | time to reach the plateau phase of polymerization [10]: 30 min; Effect on in vitro tubulin polymerization ([10]; result in words): promotes tubulin polymerization
7 | COc1ccc(/C=C\c2cc(OC)c(OC)c(OC)c2)cc1NC(=O)[C@H]1CCCN1C(=O)OCC1c2ccccc2-c2ccccc21 [Compound 9.4] | 3100 ± 1100 | 12800 ± 800 | 11.4 ± 0.2 | 5300 ± 1100 | 5300 ± 300 | 16.5 ± 0.3 | –
